{
  "source": "patent US20160067187A1",
  "about": "“Methods for Treating or Preventing Migraines” (Validus Pharmaceuticals LLC, priority 2005, published 2016)",
  "key": {"[1]": {"test_system": "patients suffering from migraine without aura", "test": "Double blind, randomized, placebo-controlled study in migraine without aura (Example 3)", "assay_type": "in vivo, human", "conditions": "10 mg to 40 mg per day, oral", "from_the_text": "(§1) A total of 16 patients participate in the study in […]. The age of the recruited patients ranges between 18 years and 75 years. Both male and female patients are selected for the study. Recruitment period for the study is 5 months.\n(§2) Isocarboxazid is prescribed as a prophylaxis to one group of patients. Also, isocarboxazid is prescribed after the expression of symptoms to another group of patients. […] Dose increments are based on the investigator's judgment of the patient's response. After 4 weeks of therapy on 20 mg per day, the doses may be increased to 30 mg per day, 10 mg in the AM and 20 mg in the PM. After 4 weeks of therapy on 30 mg per day, doses may be increased to 40 mg per day, 20 mg in the AM and 20 mg in the PM. After 4 weeks of 40 mg per day, the doses may be increased to 50 mg per day, 20 mg in the AM and 30 mg in the PM. After 4 weeks of 50 mg per day, the doses may be increased to 60 mg per day, 30 mg in the AM and 30 mg in the PM. The duration of the medication treatment is a total of 20 weeks.\nPatients in the study are diagnosed for the symptoms of migraine without aura. Diagnosis is performed according to the criteria set forth by the International Headache Society. […]\n(§3) In order to determine the efficacy of isocarboxazid, pain intensity is evaluated on an assessment scale and recoded in an assessment sheet. […]\n(§4) The collected data are statistically analyzed."}, "[2]": {"test_system": "acute migraine headaches", "test": "Double blind, placebo-controlled single dose study in acute migraine headaches (Example 4)", "assay_type": "in vivo, human", "conditions": "20 and 40 mg single doses; after 2 hrs and 24 hours", "experimental": "A double blind, multicenter, randomized, placebo-controlled single dose study to evaluate the efficacy of isocarboxazid in the treatment of acute migraine headaches is conducted.\nThe study consists of a screening visit, at home treatment of a single migraine attack, and a follow up visit 1-5 days following treatment. In addition to safety evaluations, the patients are evaluated for efficacy based on superiority over the placebo at 2 hour and 24 hour periods\nafter dosing for a) pain relief; b) incidence of photophobia; c) incidence of phonophobia; and d) incidence of nausea.\nThe results are collected from 30 patients."}, "[3]": {"test_system": "patients suffering from migraine with aura", "test": "Double blind, randomized, placebo-controlled study in migraine with aura (Example 2)", "assay_type": "in vivo, human", "conditions": "10 mg to 40 mg per day, oral", "experimental": "A double blind, multicenter, randomized, placebo-controlled study is performed to evaluate the efficacy of isocarboxazid in treating patients suffering from migraine with aura.\nas §1\nas §2, with “weeks. […]” for “weeks.”\nas §3, §4"}, "[4]": {"test_system": "patients with tension-type headaches", "test": "Study of treatment of chronic tension-type headache (Example 5)", "assay_type": "in vivo, human", "from_the_text": "(§5) This study is designed to evaluate the efficacy of isocarboxazid in preventing migraines and in the treatment of chronic tension-type headache.\n(§6) A total of 61 patients suffering from chronic tension-type headache are recruited. […] While on this therapy, 35 of the 42 migraine patients and 16 of the 17 patients with tension-type headaches are experiencing good or very good improvement in their symptoms. […] In tension-type headaches, the effect may occur at the earliest 3-6 weeks and in the case of migraines at the earliest 6-8 weeks after the start of treatment. The therapeutic result is independent of any concurrent depression."}, "[5]": {"conditions": "human, in vivo, inhaled or intranasal, 10 mg"}, "[6]": {"test_system": "migraine patients", "test": "Study of preventing migraines (Example 5)", "assay_type": "in vivo, human", "from_the_text": "as §5, §6"}, "[7]": {"test_system": "subjects with migraine headache", "test": "Open-label pilot study of safety, effectiveness and tolerability in the prophylactic treatment of migraine (Example 1)", "assay_type": "in vivo, human", "experimental": "An open-label pilot study was performed to evaluate the safety, effectiveness and tolerability of the MAOI isocarboxyzid (Marplan®) in the prophylactic treatment of migraine.\nMale and female subjects 18-60 years of age were recruited. […] The subject must have had approximately 3-12 migraine headaches per month for the 3 months prior to entering the screening period. Major exclusion criteria included a history of cluster headache, migraine with prolonged aura, and atypical forms of migraine. […] Concomitant use of tryptans, NSAID's, antidepressants and other commonly used ant-migraine agents was prohibited. The Headache Assessment Scale and other assessments were recorded at Baseline and Weeks 1, 4, 8, 12, 16 and 20. Primary safety and efficacy analysis were based on the intention-to-treat population. Safety data included laboratory data, adverse events, vital signs, and ECG's. The primary efficacy measure was within-subject change from baseline in migraine frequency.\nFourteen subjects had at least on post-baseline assessment, and seven subjects completed the full 20 weeks of treatment (Table 1a,b). […] Five subjects (31%) withdrew due to adverse events. […] The mean does for completers at the end of study was 38.6 mg (Table 2). […] At baseline, subjects reported an average migraine frequency of 5.2 +1.9 attacks/month. […] At week 20, a frequency of 0.4±0.7 (p<0.001) was observed. […] Because of the small number of subjects and relatively high dropout rate, an analysis of the data using a Last Observation Carried Forward (LOF) procedure was undertaken."}},
  "data": [
    {"compound": "Cc1cc(C(=O)NNCc2ccccc2)no1", "note": "[isocarboxazid]", "values": [
      {"measurement": "effect versus placebo in treating and preventing migraine without aura", "setting": "[1]", "result": "superior effect over the placebo"},
      {"measurement": "effect versus placebo in treating acute headaches", "setting": "[2]", "result": "superior effect over a placebo"},
      {"measurement": "effect versus placebo in treating and preventing migraine with aura", "setting": "[3]", "result": "superior effect over the placebo"},
      {"measurement": "earliest occurrence of the effect after the start of treatment", "setting": "[4]", "result": "3-6 weeks"},
      {"measurement": "patients experiencing good or very good improvement in their symptoms", "setting": "[4]; 10 to 60 mg daily dose, about 8 months on average", "result": "16 of the 17"},
      {"measurement": "share of the maximum plasma concentration (Cmax) reached at 30 minutes after administration", "setting": "[5]", "result": 60, "unit": "%"},
      {"measurement": "patients experiencing good or very good improvement in their symptoms", "setting": "[6]; migraine patients, 10 to 60 mg daily dose, about 8 months on average", "result": "35 of the 42"},
      {"measurement": "earliest occurrence of the effect after the start of treatment", "setting": "[6]; migraines", "result": "6-8 weeks"},
      {"measurement": "Discontinued (Lack of efficacy), number of subjects (%)", "setting": "[7]; 16 subjects at baseline visit, 20 weeks", "result": "0 (0%)"},
      {"measurement": "Change from baseline (mean ± SD) in migraine frequency", "setting": "[7]; LOCF, n 14, p-value 7.0 × 10^−6", "result": "3.8 ± 2.8"},
      {"measurement": "Change from baseline (mean ± SD) in migraine frequency", "setting": "[7]; Observed cases, n 7, p-value 1.5 × 10^−7", "result": "5.9 ± 1.5"},
      {"measurement": "reduction in migraine frequency during the course of treatment", "setting": "[7]; all subjects", "result": "significant reduction"},
      {"measurement": "Adverse Event: Anxiety, Number", "setting": "[7]; both, human, in vivo, 20 weeks", "result": 1},
      {"measurement": "Adverse Event: Fatigue, Number", "setting": "[7]; both, human, in vivo, 20 weeks", "result": 2},
      {"measurement": "Adverse Event: Insomnia, Number", "setting": "[7]; both, human, in vivo, 20 weeks", "result": 1},
      {"measurement": "Adverse Event: Nosebleed, Number", "setting": "[7]; both, human, in vivo, 20 weeks", "result": 1},
      {"measurement": "Discontinued (Adverse Experience), number of subjects (%)", "setting": "[7]; both, human, in vivo, 20 weeks", "result": "5 (31%)"},
      {"measurement": "subjects who withdrew due to adverse events", "setting": "[7]; both, human, in vivo, 20 weeks", "result": 31, "unit": "%"},
      {"measurement": "reduction in migraine frequency (clinically significant response) reached by all completers", "setting": "[7]; by week 16, all subjects completing the study, FIG. 3", "result": "≥ 50", "unit": "%"},
      {"measurement": "maximum dose tolerated by most subjects", "setting": "[7]; most subjects, FIG. 1, titrated from 20 mg per day up to 60 mg per day", "result": "20 to 40", "unit": "mg/day"},
      {"measurement": "reductions in migraine frequency by week 8", "setting": "[7]; week 8, FIG. 2", "result": "significant reductions"},
      {"measurement": "migraine frequency at week 20", "setting": "[7]; week 20, baseline 5.2 +1.9 attacks/month, p<0.001", "result": "0.4±0.7", "unit": "attacks/month"}
    ]}
  ]
}
